From the NIST ThermoML archive (doi:10.1021/je030207i)

Assays:
[1] = excess molar enthalpy (molar enthalpy of mixing); xn = mol fraction of the nth substance listed; settings: 101.3 kPa, Liquid, Flow calorimetry
[2] = Liquid; for mass density: 298.15 K, 101.3 kPa; for Normal boiling temperature: Ebulliometric method (Recirculating still)

OCCO [1,2-ethanediol] + CCCCO
excess molar enthalpy [kcal/mol], [1]
Settings	298.15 K	308.15 K	323.15 K
x1 = 0.0798	–	–	0.0775
x1 = 0.0803	0.0708	0.0745	–
x1 = 0.1548	0.115	0.122	–
x1 = 0.1552	–	–	0.124
x1 = 0.225	0.144	0.152	–
x1 = 0.2253	–	–	0.159
x1 = 0.2912	0.161	0.171	–
x1 = 0.2914	–	–	0.179
x1 = 0.3537	0.172	0.181	–
x1 = 0.354	–	–	0.191
x1 = 0.4129	0.176	0.186	–
x1 = 0.4131	–	–	0.197
x1 = 0.4691	0.177	0.187	–
x1 = 0.4692	–	–	0.199
x1 = 0.5223	–	0.185	–
x1 = 0.5224	0.175	–	0.196
x1 = 0.573	0.17	0.18	0.19
x1 = 0.6211	–	0.172	0.184
x1 = 0.6212	0.163	–	–
x1 = 0.6671	0.154	0.163	0.172
x1 = 0.7108	–	–	0.16
x1 = 0.7109	0.143	0.152	–
x1 = 0.7527	0.132	0.139	0.147
x1 = 0.7926	0.117	0.124	0.132
x1 = 0.8308	0.103	0.108	–
x1 = 0.8309	–	–	0.116
x1 = 0.8675	0.0857	0.0913	0.0944
x1 = 0.9026	0.0679	0.0715	0.0749
x1 = 0.9362	0.0466	0.0485	–
x1 = 0.9363	–	–	0.0521
x1 = 0.9686	0.0243	0.026	–
x1 = 0.9687	–	–	0.0267

OCCO [1,2-ethanediol] + CCCO
excess molar enthalpy [kcal/mol], [1]
Settings	298.15 K	308.15 K	323.15 K
x1 = 0.0644	–	–	0.0566
x1 = 0.0664	0.0498	0.0535	–
x1 = 0.13	0.0849	0.0912	0.0966
x1 = 0.1915	0.109	0.117	0.125
x1 = 0.2511	0.126	0.135	0.144
x1 = 0.3089	0.137	0.147	0.156
x1 = 0.3648	0.144	0.152	0.163
x1 = 0.4191	0.147	0.155	–
x1 = 0.4192	–	–	0.167
x1 = 0.4718	0.147	0.156	0.167
x1 = 0.5229	0.144	0.153	0.163
x1 = 0.5725	0.138	0.148	0.158
x1 = 0.6207	0.132	0.141	0.15
x1 = 0.6676	0.124	0.132	0.141
x1 = 0.7131	0.114	0.121	0.129
x1 = 0.7574	0.102	0.109	0.116
x1 = 0.8005	0.0897	0.0942	0.101
x1 = 0.8425	0.0741	0.0784	0.0838
x1 = 0.8833	–	–	0.0651
x1 = 0.8834	0.0581	0.0611	–
x1 = 0.9231	–	–	0.0448
x1 = 0.9232	0.04	0.0426	–
x1 = 0.9619	0.0209	0.0218	0.0229

CO [methanol]
[2]
Settings	Normal boiling temperature [°C]	mass density [kg/m3]
–	64.47	786.4

CCCO [propan-1-ol]
[2]
Settings	Normal boiling temperature [°C]	mass density [kg/m3]
–	97.16	799.8

CCC(C)O (stereo not drawn) [butan-2-ol] + OCCO
excess molar enthalpy [kcal/mol], [1]
Settings	298.15 K	308.15 K	323.15 K
x2 = 0.081	0.0655	0.0583	0.0422
x2 = 0.1557	0.109	0.101	0.0777
x2 = 0.226	0.136	0.128	0.103
x2 = 0.2923	0.154	0.145	0.12
x2 = 0.3549	0.164	0.155	0.131
x2 = 0.4142	0.167	0.161	0.137
x2 = 0.4703	0.167	0.161	0.139
x2 = 0.5235	0.165	0.159	0.139
x2 = 0.5741	0.16	0.154	0.136
x2 = 0.6222	0.152	0.148	0.132
x2 = 0.6681	0.144	0.14	0.126
x2 = 0.7117	0.133	0.13	0.117
x2 = 0.7535	0.122	0.119	0.108
x2 = 0.7933	0.107	0.106	0.0979
x2 = 0.8314	0.093	0.0915	0.0851
x2 = 0.868	0.0777	0.0769	0.071
x2 = 0.9029	0.0603	0.0602	0.055
x2 = 0.9365	0.0421	0.0412	0.0373
x2 = 0.9687	0.0223	0.0221	0.0192

OCCO [1,2-ethanediol]
Settings	Normal boiling temperature [°C]
[2]	197.23

OCCO [1,2-ethanediol] + CC(C)O
[1]
Settings	excess molar enthalpy [kcal/mol]
298.15 K, x1 = 0.0678	0.0521
298.15 K, x1 = 0.1326	0.0876
298.15 K, x1 = 0.1951	0.112
298.15 K, x1 = 0.2555	0.128
298.15 K, x1 = 0.3138	0.138
298.15 K, x1 = 0.3702	0.143
298.15 K, x1 = 0.4248	0.145
298.15 K, x1 = 0.4776	0.144
298.15 K, x1 = 0.5287	0.14
298.15 K, x1 = 0.5782	0.134
298.15 K, x1 = 0.6262	0.127
298.15 K, x1 = 0.6727	0.118
298.15 K, x1 = 0.7178	0.107
298.15 K, x1 = 0.7617	0.0951
298.15 K, x1 = 0.8042	0.0815
298.15 K, x1 = 0.8455	0.0677
298.15 K, x1 = 0.8857	0.0523
298.15 K, x1 = 0.9248	0.036
298.15 K, x1 = 0.9628	0.0185
308.15 K, x1 = 0.0675	0.0506
308.15 K, x1 = 0.1325	0.0874
308.15 K, x1 = 0.1953	0.112
308.15 K, x1 = 0.2558	0.128
308.15 K, x1 = 0.3143	0.138
308.15 K, x1 = 0.3708	0.144
308.15 K, x1 = 0.4254	0.145
308.15 K, x1 = 0.4783	0.144
308.15 K, x1 = 0.5294	0.141
308.15 K, x1 = 0.589	0.135
308.15 K, x1 = 0.627	0.127
308.15 K, x1 = 0.6735	0.118
308.15 K, x1 = 0.7186	0.107
308.15 K, x1 = 0.7624	0.0959
308.15 K, x1 = 0.8049	0.0828
308.15 K, x1 = 0.8462	0.0682
308.15 K, x1 = 0.8863	0.0527
308.15 K, x1 = 0.9252	0.0366
308.15 K, x1 = 0.9631	0.0188
323.15 K, x1 = 0.0678	0.0469
323.15 K, x1 = 0.1326	0.0815
323.15 K, x1 = 0.1951	0.105
323.15 K, x1 = 0.2555	0.121
323.15 K, x1 = 0.3138	0.131
323.15 K, x1 = 0.3702	0.138
323.15 K, x1 = 0.4247	0.14
323.15 K, x1 = 0.4775	0.14
323.15 K, x1 = 0.5286	0.136
323.15 K, x1 = 0.5781	0.131
323.15 K, x1 = 0.6261	0.124
323.15 K, x1 = 0.6727	0.116
323.15 K, x1 = 0.7178	0.105
323.15 K, x1 = 0.7617	0.0939
323.15 K, x1 = 0.8042	0.0816
323.15 K, x1 = 0.8456	0.0673
323.15 K, x1 = 0.8858	0.0522
323.15 K, x1 = 0.9248	0.036
323.15 K, x1 = 0.9628	0.0189

OCCO [1,2-ethanediol] + CO
[1]
Settings	excess molar enthalpy [kcal/mol]
298.15 K, x1 = 0.037	0.00564
298.15 K, x1 = 0.0748	0.0106
298.15 K, x1 = 0.1137	0.0147
298.15 K, x1 = 0.1538	0.0184
298.15 K, x1 = 0.195	0.0216
298.15 K, x1 = 0.2374	0.024
298.15 K, x1 = 0.2811	0.0263
298.15 K, x1 = 0.3262	0.0274
298.15 K, x1 = 0.3726	0.0287
298.15 K, x1 = 0.4206	0.0289
298.15 K, x1 = 0.4701	0.0289
298.15 K, x1 = 0.5212	0.0282
298.15 K, x1 = 0.574	0.027
298.15 K, x1 = 0.6286	0.0251
298.15 K, x1 = 0.6851	0.0226
298.15 K, x1 = 0.7436	0.0197
298.15 K, x1 = 0.8042	0.0157
298.15 K, x1 = 0.867	0.0114
298.15 K, x1 = 0.9321	0.00591
308.15 K, x1 = 0.0372	0.00594
308.15 K, x1 = 0.0752	0.0113
308.15 K, x1 = 0.1143	0.0158
308.15 K, x1 = 0.1545	0.0196
308.15 K, x1 = 0.1958	0.0234
308.15 K, x1 = 0.2384	0.0258
308.15 K, x1 = 0.2822	0.0282
308.15 K, x1 = 0.3274	0.0298
308.15 K, x1 = 0.3739	0.0307
308.15 K, x1 = 0.4219	0.0314
308.15 K, x1 = 0.4715	0.0311
308.15 K, x1 = 0.5226	0.0302
308.15 K, x1 = 0.5754	0.0285
308.15 K, x1 = 0.6299	0.0269
308.15 K, x1 = 0.6863	0.0243
308.15 K, x1 = 0.7447	0.021
308.15 K, x1 = 0.8051	0.0169
308.15 K, x1 = 0.8676	0.0121
308.15 K, x1 = 0.9325	0.00632
323.15 K, x1 = 0.0371	0.00686
323.15 K, x1 = 0.075	0.0127
323.15 K, x1 = 0.114	0.0179
323.15 K, x1 = 0.154	0.0219
323.15 K, x1 = 0.1953	0.0258
323.15 K, x1 = 0.2378	0.0291
323.15 K, x1 = 0.2815	0.0316
323.15 K, x1 = 0.3266	0.0332
323.15 K, x1 = 0.3732	0.0343
323.15 K, x1 = 0.4211	0.035
323.15 K, x1 = 0.4706	0.0344
323.15 K, x1 = 0.5218	0.034
323.15 K, x1 = 0.5746	0.0322
323.15 K, x1 = 0.6292	0.0298
323.15 K, x1 = 0.6856	0.0271
323.15 K, x1 = 0.744	0.0231
323.15 K, x1 = 0.8046	0.0185
323.15 K, x1 = 0.8673	0.013
323.15 K, x1 = 0.9323	0.00668

CCO [ethanol]
[2]
Settings	Normal boiling temperature [°C]	mass density [kg/m3]
–	78.26	785.2

OCCO [1,2-ethanediol] + CCO
excess molar enthalpy [kcal/mol], [1]
Settings	298.15 K	308.15 K	323.15 K
x1 = 0.0526	0.0266	0.0283	0.0307
x1 = 0.1045	0.0475	0.0506	0.0547
x1 = 0.1561	0.0636	0.0678	0.0734
x1 = 0.2075	0.0758	0.0807	0.0875
x1 = 0.2587	0.084	0.0904	0.0976
x1 = 0.3096	0.0907	0.0971	0.105
x1 = 0.3604	0.0945	0.101	0.109
x1 = 0.4109	0.0962	0.103	0.111
x1 = 0.4611	0.0962	0.103	0.111
x1 = 0.5112	0.0945	0.101	0.108
x1 = 0.561	0.091	0.0971	0.105
x1 = 0.6106	0.0858	0.0915	0.0986
x1 = 0.66	0.0793	0.085	0.0911
x1 = 0.7092	0.0716	0.0765	0.0822
x1 = 0.7581	0.063	0.067	0.0724
x1 = 0.8069	0.0528	0.0562	0.0601
x1 = 0.8554	0.0412	0.0432	0.0472
x1 = 0.9037	0.0277	0.0305	0.0329
x1 = 0.9518	0.0147	0.0156	0.0169

CC(C)O [propan-2-ol]
[2]
Settings	Normal boiling temperature [°C]	mass density [kg/m3]
–	82.20	781.1

CCCCO [butan-1-ol]
[2]
Settings	Normal boiling temperature [°C]	mass density [kg/m3]
–	117.71	805.9
